As a reminder, the IC50 is the concentration needed to halve the response being measured.

The target of the experiment is T1, human PD-1 / PD-L1-Ig binding on Jurkat cell line over-expressing human PD-1 (Jurkat-PD-1) (Homo sapiens, UniProt Q15116).
T1 construct: expressed in transfected cells; host or cells: Jurkat
The experiment is described as follows: Jurkat-PD-1 Cell Binding High-Content Screening Assay (CBA). The class given is cell-based. Conditions: Jurkat-PD-1 cells, PE-labeled PD-L1-Ig 20 nM final; read-out: Jurkat HPD1_PDL1 IC50. An outline of the steps:
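Jurkat cells over-expressing human PD-1, in DMEM/10% FCS, pre-incubated with compound 2 h at 37° C. PE-labeled human PD-L1-Ig (20 nM final) added for 1 h; cells fixed in paraformaldehyde with Hoechst 33342 nuclear stain, washed, and bound fluorescence quantified by high-content imaging.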

Where a SMILES comes first, the peptide text is derived from it. Bridges are numbered along the chain shown (N, C = ends). [ ]: non-standard residue; d: D form. The star is where a group is joined. Bip = N[C@@H](Cc1ccc(-c2ccccc2)cc1)C(=O)O; Phe(3-F) = N[C@@H](Cc1cccc(F)c1)C(=O)O; Phe(3-Me) = Cc1cccc(C[C@H](N)C(=O)O)c1; Val(3-OH) = CC(C)(O)[C@H](N)C(=O)O; 4Pal = N[C@@H](Cc1ccncc1)C(=O)O; Cha = N[C@@H](CC1CCCCC1)C(=O)O; Cit = NC(=O)NCCC[C@H](N)C(=O)O; Carboxymethyl = O=C(O)C*; Orn = NCCC[C@H](N)C(=O)O; Dab = NCC[C@H](N)C(=O)O; Dap = NC[C@H](N)C(=O)O

T1 sequence (Q15116 25-288): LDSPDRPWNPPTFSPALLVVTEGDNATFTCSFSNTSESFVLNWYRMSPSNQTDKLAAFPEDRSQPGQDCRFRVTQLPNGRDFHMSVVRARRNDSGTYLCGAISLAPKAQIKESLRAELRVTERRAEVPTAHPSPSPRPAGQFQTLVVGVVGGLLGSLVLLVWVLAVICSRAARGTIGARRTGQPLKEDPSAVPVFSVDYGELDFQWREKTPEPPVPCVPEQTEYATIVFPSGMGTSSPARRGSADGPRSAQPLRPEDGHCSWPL

In the case of `CC(C)C[C@H]1NC(=O)[C@H](CCCN)NC(=O)[C@H](C(C)C)NC(=O)[C@H](Cc2ccc(-c3ccccc3)cc2)NC(=O)[C@H](C(C)C)NC(=O)[C@H](Cc2c[nH]c3ccccc23)NC(=O)[C@H](CC(=O)O)NC(=O)[C@H](Cc2ccc(OCC(=O)O)cc2)NC(=O)[C@H](CN)NC(=O)CSC[C@@H](C(=O)N[C@@H](C)C(N)=O)NC(=O)[C@H]([C@@H](C)O)NC(=O)[C@H](C(C)C)NC(=O)[C@H](CC2CCCCC2)NC(=O)[C@H]([C@@H](C)O)NC1=O` [Compound 1524] ({CH2CO}-[Dap]Y(Carboxymethyl)DWV[Bip]V[Orn][dL]T[Cha]VTCA-NH2; thioether N-14), the IC50 stood at 9.2 nM.
For `CC(C)C[C@H]1NC(=O)[C@H](CCCN)NC(=O)[C@H](CCCNC(N)=O)NC(=O)[C@H](Cc2ccc(-c3ccccc3)cc2)NC(=O)[C@H](C(C)C)NC(=O)[C@H](Cc2c[nH]c3ccccc23)NC(=O)[C@H](CC(=O)O)NC(=O)[C@H](Cc2ccc(OCC(=O)O)cc2)NC(=O)[C@H](CN)NC(=O)CSC[C@@H](C(=O)N[C@@H](C)C(N)=O)NC(=O)[C@H]([C@@H](C)O)NC(=O)[C@H](C(C)C)NC(=O)[C@H](Cc2ccc(O)cc2)NC(=O)[C@H](CCN)NC1=O` [Compound 1346] ({CH2CO}-[Dap]Y(Carboxymethyl)DWV[Bip][Cit][Orn][dL][Dab]YVTCA-NH2; thioether N-14), the IC50 stood at 95.8 nM.
As for `Cc1cccc(C[C@@H]2NC(=O)[C@H](CC(=O)O)NC(=O)[C@H](Cc3ccc(OCC(=O)O)cc3)NC(=O)[C@H](Cc3ccncc3)NC(=O)CSC[C@@H](C(=O)N[C@@H](CCN)C(N)=O)NC(=O)[C@H](CCC(N)=O)NC(=O)[C@H](C(C)(C)O)NC(=O)[C@H](CC3CCCCC3)NC(=O)[C@H](CCN)NC(=O)[C@@H](CC(C)C)NC(=O)[C@H](CCCN)NC(=O)[C@H](Cc3ccc(OCC(=O)O)cc3)NC(=O)[C@H](Cc3ccc(-c4ccccc4)cc3)NC(=O)[C@H](Cc3ccc(OCC(=O)O)cc3)NC2=O)c1` [Compound 2068] ({CH2CO}-[4Pal]Y(Carboxymethyl)D[Phe(3-Me)]Y(Carboxymethyl)[Bip]Y(Carboxymethyl)[Orn][dL][Dab][Cha][Val(3-OH)]QC[Dab]-NH2; thioether N-14), the figure is 8.2 nM; as for `CCCC[C@H]1NC(=O)[C@H](CCCN)NC(=O)[C@H](CCCNC(N)=O)NC(=O)[C@H](Cc2ccc(-c3ccccc3)cc2)NC(=O)[C@H](C(C)C)NC(=O)[C@H](Cc2c[nH]c3ccccc23)NC(=O)[C@H](CC(=O)O)NC(=O)[C@H](Cc2ccncc2)NC(=O)[C@H](CN)NC(=O)CSC[C@@H](C(=O)N[C@@H](C)C(N)=O)NC(=O)[C@H]([C@@H](C)O)NC(=O)[C@H](C(C)C)NC(=O)[C@H](CC2CCCCC2)NC(=O)[C@H](CCN)NC1=O` [Compound 1703], 25.1 nM; as for `CC(C)C[C@H]1NC(=O)[C@H](CCCN)NC(=O)[C@H](CCCNC(N)=O)NC(=O)[C@H](Cc2ccc(-c3ccccc3)cc2)NC(=O)[C@H](C(C)C)NC(=O)[C@H](Cc2c[nH]c3ccccc23)NC(=O)[C@H](CC(=O)O)NC(=O)[C@H](Cc2cccc(F)c2)NC(=O)[C@H](CN)NC(=O)CSC[C@@H](C(=O)N[C@@H](C)C(N)=O)NC(=O)[C@H]([C@@H](C)O)NC(=O)[C@H](C(C)C)NC(=O)[C@H](CC2CCCCC2)NC(=O)[C@H](CCN)NC1=O` [Compound 2097] ({CH2CO}-[Dap][Phe(3-F)]DWV[Bip][Cit][Orn][dL][Dab][Cha]VTCA-NH2; thioether N-14), 18.8 nM.
As for `Cc1cccc(C[C@@H]2NC(=O)[C@H](CC(=O)O)NC(=O)[C@H](Cc3ccc(C(=O)O)cc3)NC(=O)[C@H](Cc3ccc(OCC(=O)O)cc3)NC(=O)CSC[C@@H](C(=O)N[C@@H](C)C(N)=O)NC(=O)[C@H]([C@@H](C)O)NC(=O)[C@H](C(C)C)NC(=O)[C@H](CC3CCCCC3)NC(=O)[C@H](CCN)NC(=O)[C@@H](CC(C)C)NC(=O)[C@H](CCCN)NC(=O)[C@H](CN)NC(=O)[C@H](Cc3ccc(-c4ccccc4)cc3)NC(=O)[C@H](C(C)C)NC2=O)c1` [Compound 1416], the figure is 8.5 nM.
